Patent publication US10351573B2, “Benzoic acid, benzoic acid derivatives and heteroaryl carboxylic acid conjugates of hydrocodone, prodrugs, methods of making and uses thereof” (KemPharm, Inc., priority 2009, dated 2019)
Where a name gives a salt, the structure may show the parent alone. Read-outs that look alike come from different tables or passages of the source.

Experiments:
[1] = humans, fasted, oral, equimolar doses
[2] = Example 22: intranasal crushed / oral intact tablets human PK study vs HB/APAP
[3] = Example 23: Bz-HC.HCl API single dose intranasal human PK study vs HB API; assay type: in vivo, humans; settings: 13.34 mg Bz-HC•HCl API; for AUC(0-t) / AUC(0-inf) / half-life / Cmax: 13.34 mg
From the text: This was a randomized, double blind, single dose, two way crossover, single center study in recreational non-dependent opioid users. Subjects participated in a Screening Phase (Visit 1), Naloxone Challenge Test (Visit 2, Check in), Treatment Phase (Visit 2, inpatient) and Follow up Phase (Visit 3).
A sufficient number of male and female subjects between the ages of 18-55 years were to be screened in order to enroll approximately 30 subjects into the Treatment Phase to ensure 24 completers.

[4] = Water solubility / feasibility of intranasal or intravenous dosing; settings: water

SMILES: COc1ccc2c3c1O[C@H]1C(OC(=O)c4ccccc4)=CC[C@H]4[C@@H](C2)N(C)CC[C@]314 [Bz-HC•HCl, benzoate-hydrocodone hydrochloride]
- bioequivalence to Norco (in words) [1]: bioequivalent
- half-life ([2]; human, plasma, inhaled or intranasal): 66.6 min
- Tlast of Bz-HC (time of the last quantifiable concentration), median ([2]; intranasal crushed Bz-HC.HCl/APAP 13.34/650 mg): 6.22 h
- Bz-HC plasma concentrations at 24 hours post-dose (in words) ([3]; all subjects): below the limit of quantification
- Tmax ([3]; both sexes, human, plasma, inhaled or intranasal, read-out: Tmax of Bz-HC, Median (Min-Max)): 15 min
- AUC(0-t) ([3]; both sexes, human, plasma, inhaled or intranasal, n = 22, read-out: AUC0-4 h of Bz-HC, Mean (SD)): 3.14 ng·h/mL
- AUC(0-t) ([3]; both sexes, human, plasma, inhaled or intranasal, n = 22, read-out: AUC0-4 h of Bz-HC, Median (Min-Max)): 2.36 ng·h/mL
- AUC(0-t) ([3]; both sexes, human, plasma, inhaled or intranasal, n = 22, read-out: AUC0-6 h of Bz-HC, Mean (SD)): 3.4 ng·h/mL
- AUC(0-t) ([3]; both sexes, human, plasma, inhaled or intranasal, n = 22, read-out: AUC0-6 h of Bz-HC, Median (Min-Max)): 2.56 ng·h/mL
- AUC(0-t) ([3]; both sexes, human, plasma, inhaled or intranasal, n = 22, read-out: AUC0-8 h of Bz-HC, Mean (SD)): 3.51 ng·h/mL
- AUC(0-t) ([3]; both sexes, human, plasma, inhaled or intranasal, n = 22, read-out: AUC0-8 h of Bz-HC, Median (Min-Max)): 2.62 ng·h/mL
- AUC(0-t) ([3]; both sexes, human, plasma, inhaled or intranasal, n = 22, read-out: AUC0-10 h of Bz-HC, Mean (SD)): 3.56 ng·h/mL
- AUC(0-t) ([3]; both sexes, human, plasma, inhaled or intranasal, n = 22, read-out: AUC0-10 h of Bz-HC, Median (Min-Max)): 2.64 ng·h/mL
- AUC(0-t) ([3]; both sexes, human, plasma, inhaled or intranasal, n = 22, read-out: AUC0-12 h of Bz-HC, Mean (SD)): 3.59 ng·h/mL
- AUC(0-t) ([3]; both sexes, human, plasma, inhaled or intranasal, n = 22, read-out: AUC0-12 h of Bz-HC, Median (Min-Max)): 2.64 ng·h/mL
- AUC(0-t) ([3]; both sexes, human, plasma, inhaled or intranasal, n = 22, read-out: AUC0-24 h of Bz-HC, Mean (SD)): 3.61 ng·h/mL
- AUC(0-t) ([3]; both sexes, human, plasma, inhaled or intranasal, n = 22, read-out: AUC0-24 h of Bz-HC, Median (Min-Max)): 2.65 ng·h/mL
- AUC(0-inf) ([3]; both sexes, human, plasma, inhaled or intranasal, n = 22, read-out: AUCinf of Bz-HC, Mean (SD)): 3.62 ng·h/mL
- AUC(0-inf) ([3]; both sexes, human, plasma, inhaled or intranasal, n = 22, read-out: AUCinf of Bz-HC, Median (Min-Max)): 2.65 ng·h/mL
- half-life ([3]; both sexes, human, plasma, inhaled or intranasal, n = 22, read-out: t1/2 of Bz-HC, Mean (SD) (converted)): 85.2 min
- half-life ([3]; both sexes, human, plasma, inhaled or intranasal, n = 22, read-out: t1/2 of Bz-HC, Median (Min-Max) (converted)): 78 min
- AUC(0-t) ([3]; both sexes, human, plasma, inhaled or intranasal, n = 23, read-out: AUC0-1.5 h of Bz-HC, Mean (SD)): 2.06 ng·h/mL
- AUC(0-t) ([3]; both sexes, human, plasma, inhaled or intranasal, n = 23, read-out: AUC0-1.5 h of Bz-HC, Median (Min-Max)): 1.68 ng·h/mL
- AUC(0-t) ([3]; both sexes, human, plasma, inhaled or intranasal, n = 23, read-out: AUC0-2 h of Bz-HC, Mean (SD)): 2.39 ng·h/mL
- AUC(0-t) ([3]; both sexes, human, plasma, inhaled or intranasal, n = 23, read-out: AUC0-2 h of Bz-HC, Median (Min-Max)): 1.93 ng·h/mL
- AUC(0-t) ([3]; both sexes, human, plasma, inhaled or intranasal, n = 23, read-out: AUC0-3 h of Bz-HC, Mean (SD)): 2.79 ng·h/mL
- AUC(0-t) ([3]; both sexes, human, plasma, inhaled or intranasal, n = 23, read-out: AUC0-3 h of Bz-HC, Median (Min-Max)): 2.19 ng·h/mL
- AUC(0-t) ([3]; both sexes, human, plasma, inhaled or intranasal, read-out: AUC0-0.0833 h of Bz-HC, Mean (SD)): 0.0153 ng·h/mL
- AUC(0-t) ([3]; both sexes, human, plasma, inhaled or intranasal, read-out: AUC0-0.5 h of Bz-HC, Mean (SD)): 0.7 ng·h/mL
- AUC(0-t) ([3]; both sexes, human, plasma, inhaled or intranasal, read-out: AUC0-0.5 h of Bz-HC, Median (Min-Max)): 0.666 ng·h/mL
- AUC(0-t) ([3]; both sexes, human, plasma, inhaled or intranasal, read-out: AUC0-0.75 h of Bz-HC, Mean (SD)): 1.15 ng·h/mL
- AUC(0-t) ([3]; both sexes, human, plasma, inhaled or intranasal, read-out: AUC0-0.75 h of Bz-HC, Median (Min-Max)): 0.977 ng·h/mL
- AUC(0-t) ([3]; both sexes, human, plasma, inhaled or intranasal, read-out: AUC0-1 h of Bz-HC, Mean (SD)): 1.5 ng·h/mL
- AUC(0-t) ([3]; both sexes, human, plasma, inhaled or intranasal, read-out: AUC0-1 h of Bz-HC, Median (Min-Max)): 1.24 ng·h/mL
- AUC(0-t) ([3]; both sexes, human, plasma, inhaled or intranasal, read-out: AUClast of Bz-HC, Mean (SD)): 3.24 ng·h/mL
- AUC(0-t) ([3]; both sexes, human, plasma, inhaled or intranasal, read-out: AUClast of Bz-HC, Median (Min-Max)): 2.41 ng·h/mL
- Cmax ([3]; both sexes, human, plasma, inhaled or intranasal, read-out: Cmax of Bz-HC, Mean (SD)): 2.41 ng/mL
- Cmax ([3]; both sexes, human, plasma, inhaled or intranasal, read-out: Cmax of Bz-HC, Median (Min-Max)): 2.16 ng/mL
- concentration at […] ([3]; both sexes, human, plasma, other: intranasal, at 0.25 hour post-dose, read-out: highest mean (SD) plasma concentration of Bz-HC): 2.01 ng/mL
- AUC(0-t) ([3]; both, human, plasma, inhaled or intranasal, AUC0-[…] of Bz-HC, Mean (SD), read-out: AUC0-0.25 h of Bz-HC, Mean (SD)): 0.213 ng·h/mL
- AUC(0-t) ([3]; both, human, plasma, inhaled or intranasal, AUC0-[…] of Bz-HC, Median (Min-Max), read-out: AUC0-0.25 h of Bz-HC, Median (Min-Max)): 0.197 ng·h/mL
- water solubility (in words) [4]: much less soluble in water than the hydrocodone bitartrate
